Earlier results on three compounds are cited in patent US7671073B2, “Cyclohexylalanine derivatives as dipeptidyl peptidase-IV inhibitors for the treatment or prevention of diabetes” (Merck Sharp & Dohme Corp., priority 2004, dated 2010).

For data set [1] the following is noted: rats; Transplantation, 63: 1495-1500 (1997).
The next data set addresses T1, DP-IV (Homo sapiens, UniProt P27487).
T1 construct: GRF is rapidly degraded in plasma to GRF[3-44]

For data set [2] the following is noted: mouse, cyclophosphamide-induced neutropenia; WO 99/56753.

T1 sequence (P27487 whole entry): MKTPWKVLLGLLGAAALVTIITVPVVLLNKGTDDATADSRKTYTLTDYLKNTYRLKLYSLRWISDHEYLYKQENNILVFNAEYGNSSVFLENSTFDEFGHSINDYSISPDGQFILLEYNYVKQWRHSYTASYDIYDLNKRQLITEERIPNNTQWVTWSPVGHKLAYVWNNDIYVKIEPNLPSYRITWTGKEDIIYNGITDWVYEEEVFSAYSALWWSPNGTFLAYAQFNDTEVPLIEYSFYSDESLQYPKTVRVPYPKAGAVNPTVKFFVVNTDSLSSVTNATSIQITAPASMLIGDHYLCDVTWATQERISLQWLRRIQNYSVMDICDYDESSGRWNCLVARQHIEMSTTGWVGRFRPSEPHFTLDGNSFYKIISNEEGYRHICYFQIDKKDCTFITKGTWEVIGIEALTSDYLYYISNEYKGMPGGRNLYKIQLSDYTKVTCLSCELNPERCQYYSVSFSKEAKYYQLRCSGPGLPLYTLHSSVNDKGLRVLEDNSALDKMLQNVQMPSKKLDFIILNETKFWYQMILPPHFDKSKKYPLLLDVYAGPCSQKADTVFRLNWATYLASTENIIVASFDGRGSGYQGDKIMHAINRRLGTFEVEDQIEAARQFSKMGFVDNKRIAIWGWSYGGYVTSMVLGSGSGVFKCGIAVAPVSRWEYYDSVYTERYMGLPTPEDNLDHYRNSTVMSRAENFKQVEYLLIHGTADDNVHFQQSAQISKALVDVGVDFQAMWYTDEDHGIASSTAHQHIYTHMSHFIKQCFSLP

For the compound `CC(C)N1CCC(c2ccccc2)(c2ccccc2)CC1` [Prodipine, Pro-Pro-diphenyl-phosphonate], the cardiac allograft survival result in data set [1] is listed as “double cardiac allograft survival in rats from day 7 to day 14”.
With diprotin A, the “degradation of GRF to GRF[3-44] in plasma” value on DP-IV is given as “prevented”.
For `CC(C)[C@H](N)C(=O)N1CCC[C@H]1B(O)O` [Val-Boro-Pro], in data set [2], the hematopoiesis result was “stimulated hematopoiesis”.
